Source: paper PMC6540222, “Small Molecule Inhibitors of KDM5 Histone Demethylases Increase the Radiosensitivity of Breast Cancer Cells Overexpressing JARID1B” (Molecules, 2019)

Experiments:
[1] = tested on: H3K27me3 levels in MCF-7 cells; experiment: Western blotting of H3K27me3 levels; format: cell-based, human
Method: Histone isolation was performed according to acid extraction of histones protocol of Shechter and colleagues. Histone concentration was determined by running 5 μL of samples and known concentrations of commercially available purified calf thymus histones (from Sigma Aldrich Cat. #000000010223565001) on a SDS-PAGE gel. The gel is stained with Coomassie blue G 250 (BIO-RAD Cat. #161-0786) for 1 hour at room temperature and then destained in distilled water. The gel image is acquired with ChemiDoc XRS+ Imaging System (Bio-Rad, Hercules, CA, USA) and the volumes of bands of the samples are compared to standard concentrations of calf thymus histone.
Proteins were resolved on a 12% (histones) or 5% (JARID1B) denaturing polyacrylamide gel, using either 4 μg of histone preparation or 40 μg of cell lysate. […] Blots were scanned and analyzed with a ChemiDoc XRS+ Imaging System (Bio-Rad). The volumes of each band of protein was acquired using Bio-Rad’s ImageLab software by means of volume tools using global quantification. The signal for each protein was normalized to the housekeeping protein and ratios with average control values were determined. For histones as loading control was used either total histone H3 detected by a specific antibody or histone H1 levels by staining the upper part of the gel properly cut before protein transfer on nitrocellulose membrane.

[2] = tested on: AhR pathway in MCF-7 cells; experiment: Real Time PCR of CYP1A1 and AHRR transcripts (AhR pathway); format: cell-based, human; conditions: MCF-7, 10 μM
Method: Total RNA from treated cells was isolated using miRNeasy® mini kit (#217004, Qiagen, Venlo, Netherlands), according to producer’s protocol guidelines. One μg of total RNA was reverse-transcribed using QuantiTect® Reverse Transcription Kit (#205311, Qiagen), according to producer’s protocol guidelines (Qiagen).
Relative quantification of gene expression was performed with the 7500 Real Time PCR System (Thermo Fisher Scientific (Applied Biosystems), Waltham, MA, USA) using SensiFAST™ SYBR® Lo-ROX Kit (#BIO 94020, Bioline, London, UK). The relative amount of mRNA expression was determined by means of ΔΔCt method, using GAPDH as internal control. Primers were designed using www.ncbi.nlm.nih.gov/tools/primer-blast/ and purchased from Sigma-Aldrich. The following oligos were used: • -3′ CYP1A1 mRNA: • - Fw: 5′- […]-3′ • CYP1A1 mRNA: • - Rv: 5′- […]-3′ • AHRR mRNA: • - Fw: 5′- […]-3′ • AHRR mRNA: • - Rv: 5′- […]-3′-3′ • GAPDH mRNA: • - Fw: 5′- […]-3′ • GAPDH mRNA: • - Rv: 5′- CGTTGTCATACCAGGAAAT-3′

MCF-7 cells [3] = experiment: CCK-8 viability assay after X-ray irradiation; format: cell-based, human; conditions: MCF-7 irradiated with 3 Gy, all concentrations tested, compared to DMSO control, CCK-8 48 h post irradiation
Method: The cytoxicity assay was performed with Cell Counting Kit-8 (#96992, Sigma-Aldrich) according to the manufacturer’s instructions. 100 µL of MCF-7 T47D or MDA-MB231 cell suspension (5000 cells/well) was dispensed in a 96-well plate. After 24 h, inhibitor or DMSO was added in growth medium and then cells were irradiated. 48 h post irradiation, 10 μL of CCK-8 solution was added to each well of the plate and incubated again for 1 h. Incubate the plate for 1–4 h in the incubator. The absorbance at 450 nm was read using a VICTOR2 1420 reader (Perkin Elmer Wallac, Waltham, MA, USA). The absorbance at 450 nm of each sample, which is proportional to the number of viable cells, was first normalized on the same value of absorbance of blank (a well with only growth medium). The absorbance of each dose of radiation (sham, 0.3, 1 and 3 Gy) was normalized to the corresponding DMSO control and then, for each concentration of inhibitors, these values were normalized to the corresponding sham control.

[4] = tested on: γ-H2AX levels in MCF-7 cells; experiment: Western blotting of H2AX phosphorylation after irradiation; format: cell-based, human; conditions: RS5033 10 μM, KDOAM-25 0.03 μM
Method: Proteins were resolved on a 12% (histones) or 5% (JARID1B) denaturing polyacrylamide gel, using either 4 μg of histone preparation or 40 μg of cell lysate. After electrophoresis, proteins were transferred on a nitrocellulose membrane (Protran™ […] NC, # 10600002, GE Healthcare (Amersham™), Chicago, IL, USA) via wet transfer method using a Bio-Rad tank. Transfer efficiency was verified via ponceau staining (#P7767, Sigma-Aldrich). Filters were blocked with either milk (#70166, Sigma-Aldrich) or bovine serum albumin (#A3069, Sigma-Aldrich) and then hybridized over night at 4 °C in gentle rotation with the following antibodies: rabbit anti-H3K4me3 (1:1000, #39915, Active Motif, RRID:AB_2687512); rabbit-anti-H3K27me3 (1:1000, #9733, Cell Signaling Technology, RRID:AB_2616029); rabbit-anti- H3K9pan-methylated (1:1000, #4473, RRID:AB_10544693); rabbit-anti-H3 ([…], Cat#1791, ABCAM, RRID:AB_302613); rabbit anti-H2AX (1:1000, Cat#7631, Cell Signaling Technology, RRID:AB_10860771), rabbit anti-Phospho-H2AX (1:1000, Cat#9718, Cell Signaling Technology, RRID:AB_2118009), rabbit anti-JARID1B (1:50, Cell Signaling Technology, Cat#3273 RRID: AB_1264191). Goat-anti-Rabbit Horseradish Peroxidase conjugated (1:10,000, #31460, Thermo Fisher Scientific, Waltham, MA, USA RRID:AB_228341) was used as secondary antibody for 1 hour hybridization at room temperature. Blots were scanned and analyzed with a ChemiDoc XRS+ Imaging System (Bio-Rad). The volumes of each band of protein was acquired using Bio-Rad’s ImageLab software by means of volume tools using global quantification. The signal for each protein was normalized to the housekeeping protein and ratios with average control values were determined. For histones as loading control was used either total histone H3 detected by a specific antibody or histone H1 levels by staining the upper part of the gel properly cut before protein transfer on nitrocellulose membrane.

MCF-7 cells [5] = experiment: RNA-seq differential gene expression; format: cell-based, human; conditions: MCF-7 treated with RS3195 10 μM
MCF-7 cells [6] = experiment: COMET assay (DNA damage); format: cell-based, human; conditions: MCF-7, sham-irradiated, 3 μM
Method: To test if the cytotoxic effects of KDM5 inhibitors on MCF-7 cells were related to an increase of DNA damage accumulation, we collected cells treated with the three KDM5 inhibitors or DMSO-treated control cells after one hour from irradiation with 3 Gy of ionizing radiation (or sham-irradiation). We then performed COMET assays to assess DNA damage.
The COMET assay was performed using the OxiSelect™ 96-Well Comet Assay Kit (Cell Biolabs, Inc., San Diego, CA, USA) following the manufacturer’s instruction manual (https://www.cellbiolabs.com/sites/default/files/STA-355-comet-assay-kit.pdf).

KDM5 enzymes = conditions: cited from earlier work

SMILES	H3K27me3 levels ([1]; MCF-7, 24 h, three concentrations (1, 10, 30 μM))	decrease of H3K27 tri-methylation ([1]; MCF-7, highest concentration of inhibitor)	CYP1A1 and AHRR transcript levels (AhR pathway genes) [2]	reduction of viable cells (MCF-7 cells [3])	ɤH2AX increase normalized to the amount of H2AX ([4]; MCF-7, 6 Gy, 4-36 h)	amount of ɤH2AX ([4]; MCF-7, sham-irradiated and irradiated (6 Gy) cells)	log2FoldChange AHRR (MCF-7 cells [5]; gene AHRR)	log2FoldChange CYP1A1 (MCF-7 cells [5]; gene CYP1A1)	log2FoldChange CYP1B1 (MCF-7 cells [5]; gene CYP1B1)	log2FoldChange RPS3A (MCF-7 cells [5]; gene RPS3A)	log2FoldChange TXNRD1 (MCF-7 cells [5]; gene TXNRD1)	cells with comet tail, sham-irradiated (intrinsic genotoxicity) (MCF-7 cells [6])	inhibition of KDM5B and KDM5D activity in vitro (KDM5 enzymes)	IC50 (KDM5 enzymes; in vitro, toward KDM5 enzymes, ref Mannironi et al. [36]) [nM]
CCOC(=O)c1ccccc1C(=O)c1cccc(NS(=O)(=O)c2ccc(OC)cc2)c1 [RS5033]	decrease	about two-fold	only a slight increase	20–35%	statistically significant at 4 h and 24 h	increases								
CCOC(=O)c1cccn1C(=O)c1cccc(NS(=O)(=O)c2ccc(OC)cc2)c1 [RS3195]			induces the genes involved in AhR pathway	more limited effect			2.438	7.446	3.42	2.088	1.608	strong effect	selectively inhibit	2000
